Data on 1 compound can be found in US11318232B2, “Compositions and methods for delivering drugs to a vessel wall” (Interface Biologics, Inc., priority 2018, dated 2022).

The assay concerns Rat Aortic Smooth Muscle Cells (RASMCs). The conditions noted are these: drug spiked directly into growth media, 20 ng/mL.

Regarding `CO[C@H]1C[C@@H]2CC[C@@H](C)[C@@](O)(O2)C(=O)C(=O)N2CCCC[C@H]2C(=O)O[C@H]([C@H](C)C[C@@H]2CC[C@@H](O)[C@H](OC)C2)CC(=O)[C@H](C)/C=C(\C)[C@@H](O)[C@@H](OC)C(=O)[C@H](C)C[C@H](C)/C=C/C=C/C=C/1C` [sirolimus], the “Normalized cell growth at 72 hours” value came to 0.463±0.035.
